Assay results from patent US20020143040A1, “Heterocyclic aromatic oxazole compounds and use thereof” (priority 1994, published 2002).
Like-named read-outs stand apart in the source and are kept apart here. One block for each molecule: values may come before it.

Assays:
[1] = molecular target: T1, human cyclooxygenase-2 (Homo sapiens, UniProt P35354); test: Inhibitory action on cyclooxygenase-2 (conversion of 14C arachidonic acid into PGH2); conditions: for COX-1/COX-2: ratio of IC50 COX-1 to IC50 COX-2
T1 sequence (P35354 18-604): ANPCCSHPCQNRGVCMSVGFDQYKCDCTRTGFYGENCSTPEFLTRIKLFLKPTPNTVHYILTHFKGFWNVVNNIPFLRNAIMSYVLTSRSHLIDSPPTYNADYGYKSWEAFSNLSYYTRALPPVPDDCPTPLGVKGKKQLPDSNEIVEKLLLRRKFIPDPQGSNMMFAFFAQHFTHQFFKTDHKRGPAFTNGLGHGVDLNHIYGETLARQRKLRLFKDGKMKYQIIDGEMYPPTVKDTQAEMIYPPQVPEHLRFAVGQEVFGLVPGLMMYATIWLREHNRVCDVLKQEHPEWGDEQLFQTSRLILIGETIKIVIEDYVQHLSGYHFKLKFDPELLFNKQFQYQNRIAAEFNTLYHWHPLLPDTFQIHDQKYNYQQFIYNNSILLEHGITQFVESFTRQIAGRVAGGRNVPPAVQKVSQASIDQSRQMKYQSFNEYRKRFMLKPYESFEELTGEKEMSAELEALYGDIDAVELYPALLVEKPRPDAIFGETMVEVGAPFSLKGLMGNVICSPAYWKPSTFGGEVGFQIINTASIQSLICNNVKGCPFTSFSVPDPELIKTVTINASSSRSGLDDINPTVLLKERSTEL
Experimental: The enzymatic activity was determined from the percent conversion of ^14C arachidonic acid into prostaglandin H2 (PGH2) and the decomposed product thereof. That is, a test sample (20 μl), an enzyme solution (20 μl) and distilled water (10 μl) were added to 100 mM Tris-HCl buffer (pH 8, 140 μl) containing hematin (2 μM) and tryptophan (5 mM), and the mixture was thoroughly stirred, which was followed by preincubation at 24° C. for 5 minutes. Then, a ^14C arachidonic acid solution (10 μl) was added and the mixture was reacted at 24° C., whereafter a solution (40 μl) of ethyl ether/methanol/1M citric acid (30/4/1) ice-cooled to −20° C. was added to stop the reaction. The reaction mixture was centrifuged for 5 minutes at 3,000 rpm to give an ether layer which was placed on a thin plate, and developed with ethyl ether/methanol/acetic acid (90/2/0.1) to determine percent conversion (A) from arachidonic acid to PGH2 and the decomposed product thereof.
An enzyme prepared from human platelets was used as an enzyme solution of cyclooxygenase-1, and an enzyme expressed by a yeast, into which cDNA of human cyclooxygenase-2 had been introduced using a kit of Invitrogen Corp., was used as an enzyme solution of cyclooxygenase-2.

[2] = molecular target: cyclooxygenase-1 prepared from human platelets (Homo sapiens, UniProt P23219); test: Inhibitory action on cyclooxygenase-1 (conversion of 14C arachidonic acid into PGH2); type: biochemical; conditions: enzyme prepared from human platelets; preincubation 24° C. 5 minutes; read-out: IC50 (μM) COX-1
cyclooxygenase-1 prepared from human platelets, sequence (P23219 24-599): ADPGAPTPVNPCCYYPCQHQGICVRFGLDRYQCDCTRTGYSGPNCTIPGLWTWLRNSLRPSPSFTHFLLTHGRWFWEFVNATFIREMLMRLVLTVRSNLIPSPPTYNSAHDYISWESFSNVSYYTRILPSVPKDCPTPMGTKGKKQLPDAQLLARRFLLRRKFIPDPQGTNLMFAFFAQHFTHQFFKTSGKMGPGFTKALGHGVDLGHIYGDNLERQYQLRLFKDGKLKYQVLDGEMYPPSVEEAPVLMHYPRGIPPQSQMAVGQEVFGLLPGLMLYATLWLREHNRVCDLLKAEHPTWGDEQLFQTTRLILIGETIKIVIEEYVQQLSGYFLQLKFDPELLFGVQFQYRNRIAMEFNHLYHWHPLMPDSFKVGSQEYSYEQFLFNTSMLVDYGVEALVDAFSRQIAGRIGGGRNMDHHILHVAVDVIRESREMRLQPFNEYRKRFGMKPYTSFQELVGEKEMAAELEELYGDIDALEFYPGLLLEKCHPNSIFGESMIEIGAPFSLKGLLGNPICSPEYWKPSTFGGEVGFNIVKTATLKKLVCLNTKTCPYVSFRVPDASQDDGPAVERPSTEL
From the text: (Inhibitory Action on Cyclooxygenase)
Inhibition (%)=(1−A/B)×100

[3] = tested on: carrageenin-induced podedema; test: Effects on carrageenin-induced podedema; type: in vivo, male Donryu rats; conditions: p.o. one hour before carrageenin; limb volume 3 hours after carrageenin; dose inhibiting by 30% relative to control group
Experimental: (Effects on Carrageenin-induced Podedema)
Carrageenin (1%, 0.05 ml) dissolved in physiological saline was subcutaneously injected to the left hindlimb of male Donryu rats to induce podedema. The degree of podedema was evaluated by measuring the volume of the limb 3 hours after carrageenin administration. A test compound (1, 3, 10 or 30 mg/kg) was orally administered one hour before carrageenin administration, and suppression thereby was studied. Inhibitory activity was expressed by the dose (ED30) of the test compound necessary for inhibiting by 30% relative to the control group.

COX-1/COX-2 [1]: >625
Structure (SMILES): Cc1nc(C2CCCCC2)c(-c2cc(F)c(S(N)(=O)=O)c(F)c2)o1 [Example 6]

Structure (SMILES): Cc1nc(C2CCCCC2)c(-c2ccc(S(C)(=O)=O)c(F)c2)o1 [Example 3, 4-cyclohexyl-5-(3-fluoro-4-methylsulfonylphenyl)-2-methyloxazole]
COX-1/COX-2 [1]: >333

IC50 ([1]; read-out: IC50 (μM) COX-2, enzyme expressed by yeast with cDNA of human cyclooxygenase-2, preincubation 24° C. 5 minutes): 0.02 µM
IC50 [2]: 5 µM
Structure (SMILES): Cc1nc(-c2ccc(F)cc2)c(-c2ccc(S(N)(=O)=O)cc2)o1 [Control 2, reference compound]

Structure (SMILES): Cc1nc(C2CCCCC2)c(-c2ccc(S(N)(=O)=O)c(F)c2)o1 [Example 2, 5-(4-aminosulfonyl-3-fluorophenyl)-4-cyclohexyl-2-methyloxazole]
carrageenin-induced podedema in rats, ED30 (mg/kg p.o.) [3]: 5.5 mg/kg
COX-1/COX-2 [1]: >1,428
IC50 [2]: > 100 µM

COX-1/COX-2 [1]: 1,233
Structure (SMILES): Cc1nc(-c2ccc(F)cc2)c(-c2ccc(S(N)(=O)=O)c(F)c2)o1 [Example 7, 5-(4-aminosulfonyl-3-fluorophenyl)-4-(4-fluorophenyl)-2-methyloxazole]

Structure (SMILES): Cc1nc(C2CCCCC2)c(-c2ccc(S(N)(=O)=O)c(Cl)c2)o1 [Example 4]
IC50 [1]: > 10 µM

Structure (SMILES): COc1ccc2c(c1)c(CC(=O)O)c(C)n2C(=O)c1ccc(Cl)cc1 [Indomethacin, reference compound]
carrageenin-induced podedema in rats, ED30 (mg/kg p.o.) [3]: 2.9 mg/kg

Structure (SMILES): Cc1nc(C2CCCCC2)c(-c2ccc(S(N)(=O)=O)c(C)c2)o1 [Example 5]
IC50 [1]: > 10 µM

Structure (SMILES): Cc1nc(C2CCCCC2)c(-c2ccc(S(N)(=O)=O)cc2)o1 [Control 1, reference compound]
COX-1/COX-2 [1]: 643
